Measured values published in US11198869B2, “Angelman syndrome antisense treatment” (The Texas A&M University System, priority 2017, dated 2021).

System: SNORD115 host-gene transcript (SNHG115)
Experiment: RNA-sequencing of Angelman syndrome iPSC neurons: SNHG115
Type: cell-based, human
Conditions: 30 μM, six days post-treatment, RNA-seq
Procedure: RNA was isolated using Qiagen RNAeasy Plus (74136, Qiagen, Hilden, Germany). RNA concentration was determined using Qubit Fluorometric Quantitation (Thermo Fisher Scientific) and RNA quality was assessed using a 4200 Agilent TapeStation (Agilent, Santa Clara, Calif.). RNA-sequencing libraries were generated using the Illumina TruSeq Stranded Total RNA kit (20020597, Illumina, Inc., San Diego, Calif.) according to the manufacturer's protocol. 75 base-pair paired-end sequencing was performed using a NextSeq 500 (IIlumina, San Diego, Calif.) at the Texas A&M Institute for Genome Sciences and Society Genomics core. Raw sequencing reads were processed using CASAVA. The resulting FASTQ sequences were examined using FASTQC. […]
To determine whether ASO-4.4.PS.L and ASO-6.1.PO-1.O affect the levels of RNA transcripts encoded by the PWS polycistronic transcript, RNA-sequencing was performed on AS iPS cells treated with each ASO and the steady state RNA levels of SNURF, SNRPN, the SNORD116 host-gene transcript (SNHG116), the SNORD116 snoRNAs, IPW, the SNORD115 host-gene transcript (SNHG115), the SNORD115 snoRNAs, and UBE3A-AS were quantified. UBE3A steady state RNA levels were also measured. […]

For “C^O*U^O*G^O*G^O-t*g*t*c*a*a*c*a*a*g-C^O*C^O*A^O*A^o [ASO-6.1.PO-1.O]”, the “Difference, SNH115G RNA level relative to vehicle” value was “significantly reduced” and the “Difference, SNH115G RNA level relative to vehicle” value (listed as ASO-6.1.PS-1.O) was −0.55.
